# Measurements published in ChEMBL document CHEMBL1201862, “PubChem BioAssay data set” (2004).
# Calls of active or inactive are those of the source.
# What was measured:
# [1] = target: T1, Replicative DNA helicase DnaB (Mycobacterium tuberculosis, UniProt P9WMR3); assay: DnaB intein splicing inhibitors, dose response, biochemical, cell-free fluorescence (AID 449749); format: functional
# T1 sequence (P9WMR3 whole entry): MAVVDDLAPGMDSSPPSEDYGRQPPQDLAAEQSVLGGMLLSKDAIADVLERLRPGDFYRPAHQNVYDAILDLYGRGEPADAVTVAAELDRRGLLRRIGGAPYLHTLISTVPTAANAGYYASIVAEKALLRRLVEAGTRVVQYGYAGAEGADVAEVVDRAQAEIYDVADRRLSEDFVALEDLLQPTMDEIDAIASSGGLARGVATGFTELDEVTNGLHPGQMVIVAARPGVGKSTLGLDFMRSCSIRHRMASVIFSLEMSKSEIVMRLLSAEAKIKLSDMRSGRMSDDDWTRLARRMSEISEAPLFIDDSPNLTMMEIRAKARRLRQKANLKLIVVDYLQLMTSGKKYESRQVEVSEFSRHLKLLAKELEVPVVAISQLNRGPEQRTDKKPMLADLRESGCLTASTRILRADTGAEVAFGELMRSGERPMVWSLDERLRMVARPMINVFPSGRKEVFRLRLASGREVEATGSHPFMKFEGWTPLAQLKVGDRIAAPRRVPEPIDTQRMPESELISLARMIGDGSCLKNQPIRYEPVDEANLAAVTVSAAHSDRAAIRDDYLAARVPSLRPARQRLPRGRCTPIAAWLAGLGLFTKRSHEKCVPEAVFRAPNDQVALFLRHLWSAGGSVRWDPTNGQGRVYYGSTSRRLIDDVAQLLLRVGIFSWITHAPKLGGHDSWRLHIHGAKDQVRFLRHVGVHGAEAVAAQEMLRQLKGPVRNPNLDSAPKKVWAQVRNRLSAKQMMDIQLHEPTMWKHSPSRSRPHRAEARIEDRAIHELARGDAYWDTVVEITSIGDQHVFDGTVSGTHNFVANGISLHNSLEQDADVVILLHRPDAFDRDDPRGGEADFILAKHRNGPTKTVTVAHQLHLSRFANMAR
# Protein RecA = target: T2, Protein RecA (Mycobacterium tuberculosis, UniProt P9WHJ3); assay: Fluorescence Cell-Free Homogeneous Dose Retest to Identify Inhibitors of RecA-Intein Splicing Activity. [Related pubchem assays (depositor defined):AID2097, AID2223, AID489010, AID492950]; format: functional
# T2 sequence (P9WHJ3 whole entry): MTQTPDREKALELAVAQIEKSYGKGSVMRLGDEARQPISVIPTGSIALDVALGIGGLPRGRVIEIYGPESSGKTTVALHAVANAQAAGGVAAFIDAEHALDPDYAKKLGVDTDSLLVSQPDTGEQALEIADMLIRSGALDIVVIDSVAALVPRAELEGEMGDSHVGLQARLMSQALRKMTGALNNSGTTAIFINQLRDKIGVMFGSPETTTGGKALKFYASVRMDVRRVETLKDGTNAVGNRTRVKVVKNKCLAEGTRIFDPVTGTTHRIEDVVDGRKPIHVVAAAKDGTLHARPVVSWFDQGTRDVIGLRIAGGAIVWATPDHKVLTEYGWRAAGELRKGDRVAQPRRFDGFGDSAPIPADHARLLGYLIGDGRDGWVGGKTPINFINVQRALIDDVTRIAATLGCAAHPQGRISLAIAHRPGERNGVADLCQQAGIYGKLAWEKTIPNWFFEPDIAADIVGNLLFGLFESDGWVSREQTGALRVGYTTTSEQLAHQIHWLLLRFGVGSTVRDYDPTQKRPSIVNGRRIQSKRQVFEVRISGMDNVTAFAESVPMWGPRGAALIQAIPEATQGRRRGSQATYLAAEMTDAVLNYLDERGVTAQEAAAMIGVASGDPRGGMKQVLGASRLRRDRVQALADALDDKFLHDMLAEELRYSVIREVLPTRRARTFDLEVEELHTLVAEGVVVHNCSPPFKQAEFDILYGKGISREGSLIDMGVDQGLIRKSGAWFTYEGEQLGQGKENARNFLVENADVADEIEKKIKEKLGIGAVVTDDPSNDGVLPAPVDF
# Estrogen receptor = target: T3, Estrogen receptor (Homo sapiens, UniProt P03372); assay: ERα coactivator recruitment enhancers – biochemical, TR-FRET, ERα LBD, dose response (AID 737)
# T3 sequence (P03372 whole entry): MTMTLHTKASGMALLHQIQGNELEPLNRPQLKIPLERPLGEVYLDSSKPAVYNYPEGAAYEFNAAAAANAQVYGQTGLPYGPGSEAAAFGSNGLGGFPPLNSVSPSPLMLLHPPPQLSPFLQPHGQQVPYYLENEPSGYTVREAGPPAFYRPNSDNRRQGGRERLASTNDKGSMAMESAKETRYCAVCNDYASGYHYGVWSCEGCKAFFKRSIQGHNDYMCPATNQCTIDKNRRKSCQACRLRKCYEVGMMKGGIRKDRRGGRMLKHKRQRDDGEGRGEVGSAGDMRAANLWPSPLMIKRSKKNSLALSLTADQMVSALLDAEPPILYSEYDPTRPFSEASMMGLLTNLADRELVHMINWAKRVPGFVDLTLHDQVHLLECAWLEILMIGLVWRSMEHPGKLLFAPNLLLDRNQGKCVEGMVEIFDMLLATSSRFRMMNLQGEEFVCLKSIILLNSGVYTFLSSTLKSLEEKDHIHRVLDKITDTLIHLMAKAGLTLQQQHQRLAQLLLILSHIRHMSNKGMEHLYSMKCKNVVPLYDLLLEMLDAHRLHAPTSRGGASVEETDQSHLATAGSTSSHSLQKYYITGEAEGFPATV
# Leucine aminopeptidase = target: T4, Leucine aminopeptidase (Plasmodium falciparum 3D7, UniProt Q8IL11); assay: P. falciparum M17LAP inhibitors, primary screen, biochemical, fluorogenic H-Leu-NHMec substrate, 1536-well (AID 1619); format: functional
# T4 sequence (Q8IL11 whole entry): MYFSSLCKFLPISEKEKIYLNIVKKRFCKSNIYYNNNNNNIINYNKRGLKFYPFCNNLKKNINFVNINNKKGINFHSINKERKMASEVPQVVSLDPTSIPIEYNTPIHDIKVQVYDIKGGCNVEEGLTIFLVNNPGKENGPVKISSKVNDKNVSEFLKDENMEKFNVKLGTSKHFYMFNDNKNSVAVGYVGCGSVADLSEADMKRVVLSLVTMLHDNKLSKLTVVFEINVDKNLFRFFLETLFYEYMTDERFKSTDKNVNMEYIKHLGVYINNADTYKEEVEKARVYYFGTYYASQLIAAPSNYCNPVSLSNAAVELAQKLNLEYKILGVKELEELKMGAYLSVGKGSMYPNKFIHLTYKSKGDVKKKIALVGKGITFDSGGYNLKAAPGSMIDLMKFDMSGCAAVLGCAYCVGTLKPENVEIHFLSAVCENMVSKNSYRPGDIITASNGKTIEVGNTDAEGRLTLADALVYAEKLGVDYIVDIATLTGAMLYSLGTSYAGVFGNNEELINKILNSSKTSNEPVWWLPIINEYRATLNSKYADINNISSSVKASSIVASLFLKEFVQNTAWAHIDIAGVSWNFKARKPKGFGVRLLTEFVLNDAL
# Transthyretin = Transthyretin (Homo sapiens, UniProt P02766); assay: Luminescence-based cell-based high throughput dose response assay to identify activators of Transthyretin (TTR) transcription.; format: functional
# Protein skinhead-1 = target: T5, Protein skinhead-1 (Caenorhabditis elegans, UniProt P34707); format: functional
# T5 sequence (P34707 whole entry): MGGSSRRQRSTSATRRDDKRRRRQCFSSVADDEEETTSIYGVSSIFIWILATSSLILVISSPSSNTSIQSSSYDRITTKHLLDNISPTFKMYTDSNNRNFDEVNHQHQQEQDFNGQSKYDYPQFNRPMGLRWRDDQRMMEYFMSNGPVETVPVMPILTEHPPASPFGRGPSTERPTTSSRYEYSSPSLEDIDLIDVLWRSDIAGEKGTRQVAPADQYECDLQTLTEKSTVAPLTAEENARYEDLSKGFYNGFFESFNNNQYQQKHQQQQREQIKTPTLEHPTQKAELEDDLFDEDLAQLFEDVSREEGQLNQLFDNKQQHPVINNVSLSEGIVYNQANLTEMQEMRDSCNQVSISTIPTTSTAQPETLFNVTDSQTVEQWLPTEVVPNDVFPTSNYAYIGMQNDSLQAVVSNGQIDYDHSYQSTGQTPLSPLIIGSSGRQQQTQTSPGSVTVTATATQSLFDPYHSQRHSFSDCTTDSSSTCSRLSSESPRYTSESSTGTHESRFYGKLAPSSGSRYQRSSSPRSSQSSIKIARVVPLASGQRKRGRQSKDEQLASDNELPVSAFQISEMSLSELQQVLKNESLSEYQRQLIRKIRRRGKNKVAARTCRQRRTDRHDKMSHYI
# [2] = target: Heat shock protein HSP 90-alpha (Homo sapiens, UniProt P07900); assay: Luminescence-based dose response biochemical high throughput screening assay for inhibitors of the Heat Shock Protein 90 (HSP90). [Related pubchem assays: 1831 (Summary AID.), 1846 (Confirmation screen.), 1789 (Primary screen.)]
# [3] = target: ADP-ribosylation factor GTPase-activating protein 1 (Rattus norvegicus, UniProt Q62848); assay: Fluorescence polarization-based biochemical high throughput dose response screening assay to identify inhibitors of ADP-ribosylation factor GTPase activating protein 1 (ARFGAP1).; format: functional
# ADP-ribosylation factor GTPase-activating protein 1, sequence (Q62848 whole entry): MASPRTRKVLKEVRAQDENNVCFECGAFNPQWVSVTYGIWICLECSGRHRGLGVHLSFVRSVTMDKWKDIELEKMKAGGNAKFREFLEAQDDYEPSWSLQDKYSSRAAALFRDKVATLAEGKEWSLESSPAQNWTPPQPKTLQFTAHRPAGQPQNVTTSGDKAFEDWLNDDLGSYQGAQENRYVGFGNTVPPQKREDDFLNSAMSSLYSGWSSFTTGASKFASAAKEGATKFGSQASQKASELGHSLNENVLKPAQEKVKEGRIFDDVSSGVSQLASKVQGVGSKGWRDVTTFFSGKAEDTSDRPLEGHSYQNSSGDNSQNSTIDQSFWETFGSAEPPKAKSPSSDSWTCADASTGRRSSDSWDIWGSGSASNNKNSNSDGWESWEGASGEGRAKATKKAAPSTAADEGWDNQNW
# HT-1080 = assay: HT1080 cell viability loss – fluorescence readout (AID 620); format: functional, cell-based; conditions: Homo sapiens
# [4] = target: Arf-GAP with SH3 domain, ANK repeat and PH domain-containing protein 1 (Homo sapiens, UniProt Q9ULH1); format: functional;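 also: biochemical fluorescence polarization dose–response screen measuring inhibition of ASAP1; ASAP1 GAP domain stimulating GTP hydrolysis by truncated human ARF1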
# Arf-GAP with SH3 domain, ANK repeat and PH domain-containing protein 1, sequence (Q9ULH1 whole entry, the tested form may be a part): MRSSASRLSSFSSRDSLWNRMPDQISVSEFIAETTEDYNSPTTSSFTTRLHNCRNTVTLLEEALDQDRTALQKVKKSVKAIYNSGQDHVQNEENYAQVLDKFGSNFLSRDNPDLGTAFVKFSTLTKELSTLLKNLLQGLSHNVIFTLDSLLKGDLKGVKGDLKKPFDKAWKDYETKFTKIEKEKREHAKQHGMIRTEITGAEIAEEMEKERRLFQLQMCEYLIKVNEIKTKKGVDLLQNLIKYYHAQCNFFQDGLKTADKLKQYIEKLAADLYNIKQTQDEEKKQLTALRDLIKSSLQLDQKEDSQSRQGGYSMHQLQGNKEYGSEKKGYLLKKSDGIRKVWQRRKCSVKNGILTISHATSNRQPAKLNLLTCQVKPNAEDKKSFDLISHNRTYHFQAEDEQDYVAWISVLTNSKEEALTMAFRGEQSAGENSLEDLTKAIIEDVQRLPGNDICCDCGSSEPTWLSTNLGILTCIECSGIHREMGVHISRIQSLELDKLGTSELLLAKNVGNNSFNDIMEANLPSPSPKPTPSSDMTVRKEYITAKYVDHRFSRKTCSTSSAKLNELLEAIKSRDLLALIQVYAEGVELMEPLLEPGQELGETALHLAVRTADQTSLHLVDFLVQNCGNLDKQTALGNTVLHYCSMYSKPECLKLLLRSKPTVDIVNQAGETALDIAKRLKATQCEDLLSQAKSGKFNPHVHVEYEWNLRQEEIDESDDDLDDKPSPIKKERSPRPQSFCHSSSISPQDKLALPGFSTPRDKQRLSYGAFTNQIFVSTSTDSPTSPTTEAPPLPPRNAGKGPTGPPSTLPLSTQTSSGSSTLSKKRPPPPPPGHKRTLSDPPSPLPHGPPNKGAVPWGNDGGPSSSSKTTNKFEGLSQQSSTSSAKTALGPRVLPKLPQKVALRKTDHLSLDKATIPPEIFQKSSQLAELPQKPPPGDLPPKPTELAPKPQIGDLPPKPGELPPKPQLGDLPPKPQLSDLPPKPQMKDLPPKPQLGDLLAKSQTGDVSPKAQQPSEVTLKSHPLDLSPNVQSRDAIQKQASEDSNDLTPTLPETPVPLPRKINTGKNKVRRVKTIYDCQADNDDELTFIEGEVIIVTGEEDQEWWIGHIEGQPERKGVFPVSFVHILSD
# Estrogen receptor beta = Estrogen receptor beta (Homo sapiens, UniProt Q92731); assay: blockers of SRC-3 recruitment to ERβ – biochemical, ELISA, streptavidin-HRP readout, orthogonal assay, confirmation (AID 1060)
# Estrogen receptor beta, sequence (Q92731 whole entry): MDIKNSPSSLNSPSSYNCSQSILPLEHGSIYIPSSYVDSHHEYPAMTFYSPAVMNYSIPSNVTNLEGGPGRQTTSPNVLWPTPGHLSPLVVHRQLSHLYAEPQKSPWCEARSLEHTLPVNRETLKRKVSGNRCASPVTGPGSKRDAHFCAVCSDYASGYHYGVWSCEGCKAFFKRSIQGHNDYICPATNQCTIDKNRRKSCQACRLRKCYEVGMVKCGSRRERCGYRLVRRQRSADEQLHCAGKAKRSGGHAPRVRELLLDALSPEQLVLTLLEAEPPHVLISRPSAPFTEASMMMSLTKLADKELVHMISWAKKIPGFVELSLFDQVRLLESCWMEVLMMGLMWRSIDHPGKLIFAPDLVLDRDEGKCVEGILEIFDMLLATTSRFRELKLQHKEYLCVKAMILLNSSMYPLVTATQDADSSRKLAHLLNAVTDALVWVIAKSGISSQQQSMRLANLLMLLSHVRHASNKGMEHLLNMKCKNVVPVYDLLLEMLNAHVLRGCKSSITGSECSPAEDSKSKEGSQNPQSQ
# Cytochrome P450 2C19 = Cytochrome P450 2C19 (Homo sapiens, UniProt P33261); assay: Cytochrome panel assay with activity outcomes. Panel member name: p450-cyp2c19 Compounds with AC50 equal or less than 10 uM are considered active; format: functional; conditions: read-out: AC50
# Cytochrome P450 2C19, sequence (P33261 whole entry): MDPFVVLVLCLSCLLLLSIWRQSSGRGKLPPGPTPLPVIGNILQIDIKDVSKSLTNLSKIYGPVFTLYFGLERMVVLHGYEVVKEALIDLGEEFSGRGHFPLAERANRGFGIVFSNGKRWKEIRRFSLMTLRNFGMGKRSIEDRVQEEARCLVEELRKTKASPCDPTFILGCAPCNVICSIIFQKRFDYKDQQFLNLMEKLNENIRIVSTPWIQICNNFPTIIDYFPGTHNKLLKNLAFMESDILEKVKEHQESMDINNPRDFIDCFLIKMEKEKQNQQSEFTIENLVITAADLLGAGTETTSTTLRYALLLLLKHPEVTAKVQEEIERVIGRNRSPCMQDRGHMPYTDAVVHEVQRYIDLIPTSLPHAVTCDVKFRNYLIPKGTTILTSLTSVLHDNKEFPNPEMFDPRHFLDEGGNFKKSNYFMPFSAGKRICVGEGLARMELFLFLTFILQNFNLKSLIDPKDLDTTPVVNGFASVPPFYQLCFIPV
compound,measurement,setting,value
CCOc1ccccc1C1C(C#N)=C(N)Nc2onc(-c3ccccc3)c21 (configuration not stated),AC50,[1],2.47 µM (active)
same,EC50,Protein RecA,1.39 µM (active)
same,EC50,Estrogen receptor,17.5 µM (active)
same,IC50,Leucine aminopeptidase,52.7 µM (active)
O=[N+]([O-])c1cccc(-c2noc(-c3ccco3)n2)c1,EC50,Transthyretin,> 167 µM (inactive)
same,IC50,Protein skinhead-1,> 100 µM (inactive)
O=C(O)c1cc(N/N=C/c2c[nH]c3ccccc23)ccc1Cl,IC50,[2],> 2 µM (active)
Cc1cc(C(=O)COC(=O)c2[nH]nc3ccccc23)c(C)n1C,IC50,[3],32.4 µM (inactive)
same,EC50,HT-1080,> 50 µM (not active)
same,IC50,[4],37.6 µM (inactive)
Nc1cc(-c2nnn[nH]2)ccc1F,IC50,Estrogen receptor beta,859 nM (not active)
same,AC50,Cytochrome P450 2C19,28.2 µM (inconclusive)
